A word on the inhibition: it is the change of the read-out against control, counted positive when it falls. In general, EC80 refers to the concentration needed for an effect of 80%.

One assay concerns Penicillium sp. Description: Plate medium assay, industrial material deteriorating microorganism, Penicillium (Experimental Example 5). The format is cell-based. To be noted: treatment at 50 mg/l, PDA plate medium, read-out: growth inhibition grade. As to the method:
(§1) In this Experimental Example, the fungicidal effects of the inventive compounds on various phytopathogenic fungi for plants and hazardous microorganism for industrial materials were examined by the methods described below. Each inventive compound was dissolved in 2 ml of dimethyl sulfoxide. 0.6 ml of this solution was added to 60 nil of a PDA medium (potato dextrose agar medium) at about 60 degrees C., which was mixed thoroughly in a 100-ml conical flask, and poured into a dish, where it was solidified, thereby obtaining a plate medium containing the inventive compound at 50 mg/L and 5 mg/L. On the other hand, a subject microorganism previously cultured on a plate medium was cut out using a cork borer whose diameter was 4 mm, and inoculated to the test compound-containing plate medium described above. […] The growth degree of the microorganism on the test compound-containing plate medium thus observed was compared with the growth degree of the microorganism in the untreated group, and % mycelial growth inhibition was calculated by the following equation. R=100(dc-dt)/dc wherein R=% mycelial extension inhibition, dc=flora diameter in untreated plate, dt=flora diameter in treated plate. The results obtained as described above were evaluated as one of the 5 grades according to the following criteria.

The next assay deals with Mucor sp. Description: Plate medium assay, industrial material deteriorating microorganism, Mucor (Experimental Example 5). The format is cell-based. To be noted: treatment at 50 mg/l, PDA plate medium, read-out: growth inhibition grade. As to the method:
as §1

A further assay relates to Tyromyces palustris. Kind of assay: Plate medium assay, wood denaturing microorganism Oouzuratake (Experimental Example 5). The format is cell-based. The note with it: treatment at 50 mg/l, PDA plate medium; read-out: growth inhibition grade. As for the experimental part:
as §1

Another assay has as its system Curvularia sp. Description: Plate medium assay, industrial material deteriorating microorganism, Curvularia (Experimental Example 5). To be noted: treatment at 50 mg/l, PDA plate medium, read-out: growth inhibition grade. It is filed as cell-based. As for the experimental part:
as §1

The test system of the next assay is Coriolus versicolor. Kind of assay: Plate medium assay, wood denaturing microorganism Kawaratake (Experimental Example 5). The format is cell-based. To be noted: Trametes versicolor; treatment at 50 mg/l, PDA plate medium; read-out: growth inhibition grade. As to the method:
as §1

The test system of assay [1] is Septoria tritici. Description: Assay for fungicidal effect on Septoria tritici, plate medium 1.25 mg/L (Experimental Example 9). It is filed as cell-based. The note with it: Zymoseptoria tritici, read-out: growth inhibition grade. As to the method:
as §1, with “Each” for “In this Experimental Example, the fungicidal effects of the inventive compounds on various phytopathogenic fungi for plants and hazardous microorganism for industrial materials were examined by the methods described below. Each”, “R=100(dc−dt)/dc” for “R=100(dc-dt)/dc”, “criteria. […] In this Experimental Example, the fungicidal effects of the inventive compounds on Septoria tritici were examined by the methods described in the Experimental Example 5. In this Experimental Example, the inventive compounds were diluted at 1.25 mg/L.” for “criteria.”

The test system of a further assay is Puccinia recondita. Kind of assay: Efficacy test against wheat brown rust, 1 mg/L (Experimental Example 10). It is filed as in vivo. The note with it: 1 g/ha (1 mg/L sprayed at 1,000 L/ha).
Assay [2] concerns Septoria tritici. Description: Assay for fungicidal effect on Septoria tritici, plate medium 0.02 mg/L (Experimental Example 7). To be noted: Zymoseptoria tritici, read-out: grade (growth inhibition grade). It is filed as cell-based. The text has this: In this Experimental Example, the fungicidal effects of the inventive compounds on a phytopathogenic fungi, Septoria tritici were examined and compared to the Comparative Compound (3) described in Patent Literature 1 (JPA01-93574) by the methods described below. […] The subject microorganism previously cultured on a plate medium was cut out using a cork borer whose diameter was 4 mm, and inoculated to the test compound-containing plate medium described above. […] The growth degree of the microorganism on the test compound-containing plate medium thus observed was compared with the growth degree of the microorganism in the untreated group, and % mycelial growth inhibition was calculated by the following equation. R=100(dc−dt)/dc wherein R=% mycelial extension inhibition, dc=flora diameter in untreated plate, dt=flora diameter in treated plate. The results obtained as described above were evaluated as one of the 5 grades according to the following criteria. <Growth Inhibition Grade> […]

Assay [3] has as its system Septoria tritici. Kind of assay: Microplate test of biocidal effect on wheat Septoria blotch (Experimental Example 4). To be noted: Zymoseptoria tritici, 240 h; % mycelium growth inhibition, absorbance 550 nm, 20 degrees C. for about 10 days; read-out: activity level (EC80). It is filed as cell-based. In short, it runs like this: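 Septoria tritici spores (1×10^6 cells/ml suspension, diluted 100-fold in PD medium) incubated with compound added from DMSO stock at 100× test concentration. Percent mycelial growth inhibition computed from absorbance of treated versus untreated wells.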

The subject of another assay is Botrytis cinerea. Description: Efficacy test against cucumber gray mold (Experimental Example 1). The note with it: 96 h, four days after inoculation, read-out: Protective value; for pest or weed control at 50 µg/mL: 50 mg/L sprayed at 1,000 L/ha; for pest or weed control at 100 µg/mL: 100 mg/L sprayed at 1,000 L/ha. The format is in vivo. As for the experimental part:
Onto a cucumber (variety:SHARP1) plant in its cotyledon phase grown using a square plastic pot (6 cm×6 cm), a wettable formulation such as Formulation Example 1 which was diluted and suspended in water at a certain concentrations (100 mg/L and 50 mg/L) was sprayed at a rate of 1,000 L/ha. The sprayed leaves were air-dried, and loaded with a paper disc (8 mm in diameter) soaked in a spore suspension of Botrytis cinerea, and kept at 20 degrees C. and a high humidity. Four days after inoculation, the cucumber gray mold lesion degree was investigated, and the protective value was calculated by the following equation. Protective value (%)=(1−mean lesion degree in sprayed plot/mean lesion degree in unsprayed plot)×100

The test system of another assay is Cladosporium sp. Kind of assay: Plate medium assay, industrial material deteriorating microorganism, Cladosporium (Experimental Example 5). It is filed as cell-based. The note with it: treatment at 50 mg/l, PDA plate medium, read-out: growth inhibition grade. As for the experimental part:
as §1

The subject of a further assay is Aspergillus sp. Description: Plate medium assay, industrial material deteriorating microorganism, Aspergillus (Experimental Example 5). To be noted: treatment at 50 mg/l, PDA plate medium, read-out: growth inhibition grade. The format is cell-based. As for the experimental part: as §1
The subject of the next assay is Aureobasidium sp. Kind of assay: Plate medium assay, industrial material deteriorating microorganism, Aureobasidium (Experimental Example 5). To be noted: treatment at 50 mg/l, PDA plate medium, read-out: growth inhibition grade. The format is cell-based. As for the experimental part: as §1
The subject of the next assay is Fusarium graminearum. Kind of assay: whole plant or invertebrate. It is filed as in vivo. The note with it: in Triticum aestivum, 168 h, read-out: Protective value.
In a further assay the test system is Trichoderma sp. Description: Plate medium assay, industrial material deteriorating microorganism, Trichoderma (Experimental Example 5). The note with it: treatment at 50 mg/l, PDA plate medium, read-out: growth inhibition grade. It is filed as cell-based. As for the experimental part: as §1

As for `C[C@]1(CCl)CC[C@@H](Cc2ccccc2)[C@]1(O)Cn1cncn1` (racemic) [Compound I-73, (1RS,2SR,5SR)-2-chloromethyl-5-benzyl-2-methyl-1-(1H-1,2,4-triazol-1-ylmethyl)cyclopentanol], the inhibition at 50 µg/mL in the assay on Penicillium sp., in the assay on Mucor sp., in the assay on Tyromyces palustris, in the assay with Curvularia sp., in the assay with Coriolus versicolor and in the assay with Cladosporium sp. was 60 to 80% each time. For the same molecule, the inhibition at 50 µg/mL in the assay with Aspergillus sp., with Aureobasidium sp. and in the assay with Trichoderma sp. was 60 to 80% throughout. For the same molecule, in the assay with Septoria tritici [1], the inhibition at 1.25 µg/mL is > 80%. Also, in the assay with Puccinia recondita, the lesion degree was 0.5 (Less than 1%). For the same molecule, the inhibition at 0.02 µg/mL in the assay on Septoria tritici [2] was > 80%. Besides, the EC80 in the assay on Septoria tritici [3] is ≤ 0.2 µg/mL. Moreover, the pest or weed control at 50 µg/mL with Botrytis cinerea is ≥ 80%. Moreover, the pest or weed control at 100 µg/mL in the assay with Botrytis cinerea and with Fusarium graminearum was ≥ 80% each time. The pest or weed control at 500 µg/mL in the assay on Fusarium graminearum is ≥ 90%.

As for `C[C@]1(CCl)CC[C@@H](Cc2ccc(F)cc2)[C@]1(O)Cn1cncn1` (racemic) [Compound I-77, (1RS,2SR,5SR)-2-chloromethyl-5-(4-fluorobenzyl)-2-methyl-1-(1H-1,2,4-triazol-1-ylmethyl)cyclopentanol], the inhibition at 50 µg/mL in the assay on Penicillium sp., with Mucor sp., in the assay with Tyromyces palustris, in the assay on Curvularia sp., with Coriolus versicolor and with Cladosporium sp. was 60 to 80% throughout. The inhibition at 50 µg/mL with Aspergillus sp., in the assay on Aureobasidium sp. and with Trichoderma sp. was 60 to 80% throughout. Moreover, in the assay with Septoria tritici [1], the inhibition at 1.25 µg/mL was > 80%. Also, the lesion degree in the assay on Puccinia recondita is on record as 0.5 (Less than 1%). Moreover, the inhibition at 0.02 µg/mL in the assay with Septoria tritici [2] is > 80%. The EC80 in the assay with Septoria tritici [3] was ≤ 0.2 µg/mL. For the same molecule, the pest or weed control at 50 µg/mL with Botrytis cinerea was ≥ 80%. Further, the pest or weed control at 100 µg/mL with Botrytis cinerea and in the assay on Fusarium graminearum was ≥ 80% each time. Besides, the pest or weed control at 500 µg/mL in the assay on Fusarium graminearum was ≥ 90%.

Values taken from US9145351B2, “Azole derivatives, methods for producing the same, intermediate thereof, agro-horticultural agents” (KUREHA CORPORATION, priority 2009, dated 2015).
